Values after ≈ are worked out from the molar mass of the structure shown.
Assays:
Staphylococcus aureus [1] = assay: Antimicrobial activity against methicillin-resistant Staphylococcus aureus ATCC 43866 after 48 hrs by broth dilution technique; assay type: functional; conditions: ATCC 43866, 48 h
Candida albicans [2] = assay: Antimicrobial activity against Candida albicans after 48 hrs by agar dilution method; assay type: functional
Klebsiella pneumoniae = assay: Antimicrobial activity against Klebsiella pneumoniae after 48 hrs by broth dilution technique; assay type: functional
Vero = assay: Cytotoxicity against African green monkey Vero cells assessed as reduction in cell viability after 72 hrs by MTT assay; assay type: cell-based; conditions: Chlorocebus sabaeus
[3] = tested on: Mycobacterium tuberculosis; assay: Antitubercular activity against Mycobacterium tuberculosis H37Rv after 7 days by Resazurin micro titer assay; assay type: functional; conditions: 168 h
Escherichia coli = assay: Antimicrobial activity against Escherichia coli ATCC 25922 after 48 hrs by broth dilution technique; assay type: functional; conditions: ATCC 25922, 48 h
Staphylococcus aureus [4] = assay: Antimicrobial activity against methicillin-sensitive Staphylococcus aureus ATCC 35556 after 48 hrs by broth dilution technique; assay type: functional; conditions: ATCC 35556, 48 h
Candida albicans [5] = assay: Ratio of Amphotericin B MIC to compound MIC for Candida albicans after 48 hrs by broth dilution technique; assay type: functional

Row | SMILES | MIC (Staphylococcus aureus [1]) [mg/L] | MIC (Candida albicans [2]) [mg/L] | MIC (Klebsiella pneumoniae) [mg/L] | IC50 (Vero) [µM] | MIC [3] [mg/L] | MIC (Escherichia coli) [mg/L] | MIC (Staphylococcus aureus [4]) [mg/L] | Ratio (Candida albicans [5])
1 | O=C(NNC(=O)c1cc([N+](=O)[O-])c[nH]1)Nc1ccccc1 | 3.12 (≈ 10.8 µM) | 3.12 (≈ 10.8 µM) | 3.12 (≈ 10.8 µM) | 357 | 40.6 (≈ 140 µM) | 3.12 (≈ 10.8 µM) | 1.56 (≈ 5.39 µM) | 
2 | COc1ccc(NC(=O)NNC(=O)c2cc([N+](=O)[O-])c[nH]2)cc1 | 3.12 (≈ 9.79 µM) | 3.12 (≈ 9.79 µM) | 3.12 (≈ 9.79 µM) | 401 | 2.5 (≈ 7.83 µM) | 3.12 (≈ 9.79 µM) | 1.56 (≈ 4.89 µM) | 
3 | O=C(NNC(=O)c1cc([N+](=O)[O-])c[nH]1)Nc1ccc([N+](=O)[O-])cc1 | 3.12 (≈ 9.35 µM) | 3.12 (≈ 9.35 µM) | 3.12 (≈ 9.35 µM) | 211 | 0.8 (≈ 2.39 µM) | 3.12 (≈ 9.35 µM) | 1.56 (≈ 4.67 µM) | 
4 | O=C(NNC(=O)c1cc([N+](=O)[O-])c[nH]1)Nc1ccc(Br)cc1 | 3.12 (≈ 8.49 µM) | 3.12 (≈ 8.49 µM) | 3.12 (≈ 8.49 µM) | 378 | 1.1 (≈ 2.99 µM) | 3.12 (≈ 8.49 µM) | 1.56 (≈ 4.24 µM) | 
5 | O=C(NNC(=O)c1cc([N+](=O)[O-])c[nH]1)Nc1ccc(Cl)cc1 | 6.25 (≈ 19.3 µM) | 3.12 (≈ 9.65 µM) | 3.12 (≈ 9.65 µM) | 218 | 2 (≈ 6.18 µM) | 3.12 (≈ 9.65 µM) | 3.12 (≈ 9.65 µM) | 
6 | COc1ccc(OC)c(NC(=O)NNC(=O)c2cc([N+](=O)[O-])c[nH]2)c1 | 3.12 (≈ 8.95 µM) | 3.12 (≈ 8.95 µM) | 3.12 (≈ 8.95 µM) | 333 | 14.5 (≈ 41.5 µM) | 3.12 (≈ 8.95 µM) | 1.56 (≈ 4.47 µM) | 
7 | O=C(NCc1ccccc1)NNC(=O)c1cc([N+](=O)[O-])c[nH]1 | 3.12 (≈ 10.3 µM) | 3.12 (≈ 10.3 µM) | 6.25 (≈ 20.6 µM) | 348 | 15.2 (≈ 50.1 µM) | 6.25 (≈ 20.6 µM) | 1.56 (≈ 5.14 µM) | 
8 | O=C(NCCc1ccccc1)NNC(=O)c1cc([N+](=O)[O-])c[nH]1 | 6.25 (≈ 19.7 µM) | 3.12 (≈ 9.85 µM) | 6.25 (≈ 19.7 µM) | 220 | 10.3 (≈ 32.5 µM) | 6.25 (≈ 19.7 µM) | 3.12 (≈ 9.85 µM) | 
9 | O=C(NCc1ccco1)NNC(=O)c1cc([N+](=O)[O-])c[nH]1 | 3.12 (≈ 10.7 µM) | 3.12 (≈ 10.7 µM) | 3.12 (≈ 10.7 µM) | 443 | 0.92 (≈ 3.14 µM) | 3.12 (≈ 10.7 µM) | 1.56 (≈ 5.32 µM) | 
10 | O=C(NNC(=O)c1cc([N+](=O)[O-])c[nH]1)NC1CCCC1 | 3.12 (≈ 11.1 µM) | 3.12 (≈ 11.1 µM) | 3.12 (≈ 11.1 µM) | 231 | 12.5 (≈ 44.4 µM) | 3.12 (≈ 11.1 µM) | 1.56 (≈ 5.55 µM) | 
11 | Cn1cc([N+](=O)[O-])cc1C(=O)NNC(=O)Nc1ccccc1 | 3.12 (≈ 10.3 µM) | 1.56 (≈ 5.14 µM) | 3.12 (≈ 10.3 µM) | 306 | 59.2 (≈ 195 µM) | 1.56 (≈ 5.14 µM) | 1.56 (≈ 5.14 µM) | 2
12 | COc1ccc(NC(=O)NNC(=O)c2cc([N+](=O)[O-])cn2C)cc1 | 3.12 (≈ 9.38 µM) | 1.56 (≈ 4.68 µM) | 3.12 (≈ 9.38 µM) | 328 | 26.1 (≈ 78.3 µM) | 1.56 (≈ 4.68 µM) | 1.56 (≈ 4.68 µM) | 2
13 | Cn1cc([N+](=O)[O-])cc1C(=O)NNC(=O)Nc1ccc([N+](=O)[O-])cc1 | 3.12 (≈ 8.97 µM) | 1.56 (≈ 4.48 µM) | 3.12 (≈ 8.97 µM) | 402 | 11.9 (≈ 34.2 µM) | 1.56 (≈ 4.48 µM) | 1.56 (≈ 4.48 µM) | 2
14 | Cn1cc([N+](=O)[O-])cc1C(=O)NNC(=O)Nc1ccc(Br)cc1 | 3.12 (≈ 8.18 µM) | 1.56 (≈ 4.08 µM) | 3.12 (≈ 8.18 µM) | 602 | 7.8 (≈ 20.4 µM) | 1.56 (≈ 4.08 µM) | 1.56 (≈ 4.08 µM) | 2
15 | Cn1cc([N+](=O)[O-])cc1C(=O)NNC(=O)Nc1ccc(Cl)cc1 | 3.12 (≈ 9.25 µM) | 1.56 (≈ 4.62 µM) | 3.12 (≈ 9.25 µM) | 290 | 30.5 (≈ 90.3 µM) | 1.56 (≈ 4.62 µM) | 1.56 (≈ 4.62 µM) | 2
16 | COc1ccc(OC)c(NC(=O)NNC(=O)c2cc([N+](=O)[O-])cn2C)c1 | 6.25 (≈ 17.2 µM) | 1.56 (≈ 4.29 µM) | 6.25 (≈ 17.2 µM) | 429 | 42.4 (≈ 117 µM) | 1.56 (≈ 4.29 µM) | 3.12 (≈ 8.6 µM) | 2
17 | C=[N+]([O-])c1cc(C(=O)NNC(=O)NCc2ccccc2)n(C)c1 | 3.12 (≈ 9.91 µM) | 1.56 (≈ 4.95 µM) | 3.12 (≈ 9.91 µM) | 304 | 51.9 (≈ 165 µM) | 3.12 (≈ 9.91 µM) | 1.56 (≈ 4.95 µM) | 2
18 | Cn1cc([N+](=O)[O-])cc1C(=O)NNC(=O)NCCc1ccccc1 | 3.12 (≈ 9.43 µM) | 1.56 (≈ 4.71 µM) | 6.25 (≈ 18.9 µM) | 633 | 42.1 (≈ 127 µM) | 3.12 (≈ 9.43 µM) | 1.56 (≈ 4.71 µM) | 2
19 | Cn1cc([N+](=O)[O-])cc1C(=O)NNC(=O)NCc1ccco1 | 3.12 (≈ 10.2 µM) | 1.56 (≈ 5.08 µM) | 3.12 (≈ 10.2 µM) | 482 | 17 (≈ 55.3 µM) | 1.56 (≈ 5.08 µM) | 1.56 (≈ 5.08 µM) | 2
20 | Cn1cc([N+](=O)[O-])cc1C(=O)NNC(=O)NC1CCCC1 | 3.12 (≈ 10.6 µM) | 1.56 (≈ 5.28 µM) | 3.12 (≈ 10.6 µM) | 271 | 38.7 (≈ 131 µM) | 1.56 (≈ 5.28 µM) | 1.56 (≈ 5.28 µM) | 2
21 | O=C(NNC(=S)Nc1ccc([N+](=O)[O-])cc1)c1cc([N+](=O)[O-])c[nH]1 | 3.12 (≈ 8.92 µM) | 3.12 (≈ 8.92 µM) | 3.12 (≈ 8.92 µM) | 529 | 0.5 (≈ 1.43 µM) | 1.56 (≈ 4.45 µM) | 1.56 (≈ 4.45 µM) | 4
22 | COc1ccc(NC(=S)NNC(=O)c2cc([N+](=O)[O-])c[nH]2)cc1 | 3.12 (≈ 9.32 µM) | 3.12 (≈ 9.32 µM) | 3.12 (≈ 9.32 µM) | 331 | 1.3 (≈ 3.88 µM) | 1.56 (≈ 4.65 µM) | 1.56 (≈ 4.65 µM) | 4
23 | O=C(NNC(=S)NC1CCCCC1)c1cc([N+](=O)[O-])c[nH]1 | 3.12 (≈ 10 µM) | 3.12 (≈ 10 µM) | 3.12 (≈ 10 µM) | 204 | 2.8 (≈ 8.99 µM) | 1.56 (≈ 5.01 µM) | 1.56 (≈ 5.01 µM) | 4
24 | Cc1ccccc1NC(=S)NNC(=O)c1cc([N+](=O)[O-])c[nH]1 | 3.12 (≈ 9.79 µM) | 3.12 (≈ 9.79 µM) | 3.12 (≈ 9.79 µM) | 462 | 0.67 (≈ 2.1 µM) | 1.56 (≈ 4.88 µM) | 1.56 (≈ 4.88 µM) | 4
25 | COc1cc(NC(=S)NNC(=O)c2cc([N+](=O)[O-])c[nH]2)cc(OC)c1OC | 6.25 (≈ 15.8 µM) | 3.12 (≈ 7.9 µM) | 3.12 (≈ 7.9 µM) | 328 | 2.7 (≈ 6.83 µM) | 1.56 (≈ 3.95 µM) | 3.12 (≈ 7.9 µM) | 4
26 | Cn1cc([N+](=O)[O-])cc1C(=O)NNC(=S)NCCc1ccccc1 | 0.78 (≈ 2.25 µM) | 0.78 (≈ 2.25 µM) | 3.12 (≈ 9 µM) | 404 | 23 (≈ 66.2 µM) | 0.78 (≈ 2.25 µM) | 0.39 (≈ 1.12 µM) | 4
27 | C[C@@H]1[C@H](O)[C@@H](C)/C=C/C=C/C=C/C=C/C=C/C=C/C=C/[C@H](O[C@@H]2O[C@H](C)[C@@H](O)[C@H](N)[C@@H]2O)C[C@@H]2O[C@](O)(C[C@@H](O)C[C@@H](O)[C@H](O)CC[C@@H](O)C[C@@H](O)CC(=O)O[C@H]1C)C[C@H](O)[C@H]2C(=O)O [AMPHOTERICIN B] |  | 3.12 (≈ 3.38 µM) |  |  |  |  |  | 
28 | O=C(O)c1cn(C2CC2)c2cc(N3CCNCC3)c(F)cc2c1=O [CIPROFLOXACIN] | 3.12 (≈ 9.43 µM) |  | 1.56 (≈ 4.71 µM) |  |  |  | 1.56 (≈ 4.71 µM) | 
29 | NNC(=O)c1ccncc1 [ISONIAZID] |  |  |  |  | 0.4 (≈ 2.92 µM) |  |  | 
